The source of these data is US11020360B2, “Methods, compounds, compositions and vehicles for delivering 3-amino-1-propanesulfonic acid” (Bellus Health, Inc., priority 2006, dated 2021).

The nature of series [1]: Metabolic profiling of 14C-3APS in mice. Conditions: Mouse plasma. It is filed as in vivo, male CD-1 mice. As to the method: Three single dose studies were conducted in mice, rats and dogs to determine the metabolic profile of ^14C-3APS in plasma, urine and feces. In the first study, twenty-seven male CD-1 mice received a single dose of 100 mg/kg (20 μCi/animal) of ^14C-3APS by oral gavage. Blood samples (3 animals/time point) were collected for 12 hr following drug administration while urine and feces (3 animals/time point) samples were collected for 96 hr. In the second study, eight male Sprague-Dawley rats received a single dose of 100 mg/kg (50 μCi/animal) of ^14C-3APS by oral gavage while in the third study, three male Beagle dogs received a single dose of 100 mg/kg (30 μCi/kg) of ^14C-3APS by oral gavage. For the rat and dog studies, blood samples were collected for 24 hr following drug administration while urine and feces samples were collected for 72 hr. All samples were analyzed for total radioactivity using appropriate sample preparation procedures and scintillation counting. Plasma and urine samples were also analyzed for 3APS and 3APS metabolites (2-carboxyethanesulfonic acid, 3-hydroxy-1-propanesulfonic acid and 3-acetylamino-1-propanesulfonic acid) concentrations using qualified HPLC and MS/MS methods.

In series [2] the test system is organotypic hippocampal slice culture. Nature of the series: In vitro metabolism of 3APS in organotypic hippocampal slice culture. It is filed as in vitro ADME. Conditions: 3-day incubation in the culture media. As to the method:
In another in vitro model employing organotypic hippocampal slice culture, the conversion of 3APS to 2-carboxyethanesulfonic acid was time-dependent. More than 60% of 3APS was converted to 2-carboxyethanesulfonic acid after 3-day incubation in the culture media. 2-carboxyethanesulfonic acid was also detected after incubation of 3APS in human hepatocyte (HepG2) culture media.

Setting [3] is: analyte after single oral 100 mg/kg 14C-3APS.
[4] abbreviates: male, CD-1, mouse, plasma, po, 100 mg/kg, analyte after single oral 100 mg/kg 14C-3APS.

The structures appear in SMILES notation.

Take `NCCCS(=O)(=O)O` [Compound 3APS, 3-amino-1-propanesulfonic acid]: in series [1] (setting [3]), the AUC0-τ worked out at 15.5 µmol·min/mL and the “AUC∞” value is 15.7 µmol·min/mL. Besides, in series [1] (setting [4]), the Tmax (commonly the time at which the peak concentration occurs) was about 0.5 h and the half-life (in general, the time needed for the level to fall by half in the phase considered) is about 2 h. Besides, the Cmax – broadly, the highest concentration seen after dosing – in series [1] (male, CD-1, analyte (3APS or metabolite) after single oral 100 mg/kg 14C-3APS) was determined as 97.7 µM. Besides, the “3APS converted to 2-carboxyethanesulfonic acid” value in series [2] is given as “More than 60%”.
